Laboratory results from paper PMC6930223 (Scientific Reports, 2019).

Assays:
hERG1a = tested on: hERG1a; parameters: method as in PMID 27260674; settings: read-out: IC50 in hERG1a-injected Xenopus oocytes; cited from earlier work
CYP2D6 = settings: cited from earlier work
hERG1a/Hsp70 complexes = test: Co-immunoprecipitation of cg-hERG1a with chaperone; assay type: cell-based, human; settings: 24 h
Procedure: (§1) The co-immunoprecipitation method was adapted and modified slightly from the previously described methodologies[40],[52]. The treated recombinant cells were incubated for 15 min at room temperature with PBS containing cross-linker 1.5 mM dithiobis (succinimidyl propionate) (DSP, Pierce USA). The cross-linker was quenched by addition of 10 mM Tris (pH 7.5) and incubated for 10 min at room temperature. Cells were detached in 10 ml ice-cold PBS and centrifuged at 300 x g for 5 min at 4 °C. The pellet was then resuspended in 300 µl ice-cold complete diluted RIPA lysis buffer containing 0.1% (v/v) NP40, 50 mM Tris pH 7.5, 150 mM NaCl, 1x PMSF solution, 1x sodium orthovanadate solution and 1x protease inhibitor cocktail solution. Subsequently, the cell suspension was incubated at 4 °C for 30 min with constant agitation and finally centrifuged at 14, 000 rpm for 10 min at 4 °C. The supernatant was saved for total protein quantitation and subsequently for co-immunoprecipitation experiments.
(§2) Briefly, 500 µg of isolated total protein was mixed with 2 µg of hERG1 rabbit polyclonal IgG (Santa Cruz Biotechnology Inc., USA), mouse Hsp70/Hsc70 monoclonal antibody (Santa Cruz Biotechnology Inc., USA) or mouse Hsp90α/β monoclonal antibody (Santa-Cruz Biotechnology Inc., USA) respectively and incubated on ice on a rotary shaker overnight. Subsequently, 30 µl of protein A/G PLUS-agarose immunoprecipitation reagent (Santa Cruz Biotechnology Inc., USA) was added into the mixture, and incubated on ice on a shaker for 8 h and subsequently stored in 4 °C overnight. The mixture was centrifuged at 1500 rpm for 5 min at 4 °C, and the pellet was washed with ice-cold PBST, each time repeating the centrifugation process. Finally, the pellet was resuspended in 25 µl 1x Laemmli sample buffer (Bio-Rad Laboratories Inc., USA) with 2.5% (v/v) β-mercaptoethanol, and then heated at 70 °C for 2 h to reverse cross-linking and to release the immunoprecipitated protein from A/G PLUS-agarose beads. The samples were centrifuged at 1500 rpm for 5 min at 4 °C to pellet the agarose beads and 20 µl of the supernatant was used for subsequent SDS-PAGE and immunoblotting analysis as described previously.
(§3) To analyze the immunoprecipitated proteins, the membrane was probed with rabbit anti-potassium channel Kv11.1 extracellular antibody (1:200) (Sigma-Aldrich, USA), mouse Hsp70/Hsc70 monoclonal antibody (1:10, 000) and mouse Hsp90α/β monoclonal antibody (1:10, 000) in the same container. […] To quantify hERG1/chaperone interactions, image densities of the core-glycosylated (cg) hERG1 protein found in immunoprecipitations with anti-hERG1 antibody were used as a measure of total hERG1a protein present. […]

hERG1a/Hsp90 complexes = test: Co-immunoprecipitation of cg-hERG1a with chaperone; assay type: cell-based, human; settings: 10 µM, 24 h, vs untreated control
Procedure: as §1, §2, §3

[1] = tested on: GIRK (G protein-coupled inward rectifier potassium) channels; parameters: method as in PMID 27260674; settings: heterologous expression systems; cited from earlier work
HEK293-hERG1a/1b cells = test: Cell proliferation assay (CellTiter 96 AQueous One), 72 h; assay type: cell-based, human
Procedure: Trypan blue exclusion test was carried out to determine the effect of transfection on HEK293-hERG1a/1b cell viability. Briefly, cell suspension was mixed with 0.4% (v/v) trypan blue solution in a ratio of 1:1 and the viability of the cells were analyzed using Countess® II FL automated cell counter (Invitrogen, USA). For cell proliferation assay, cells were first seeded at a density of 5000 cells/well onto two 96-well plates (T0 and T1) and were incubated at 37 °C for 24 h in a humidified incubator supplemented with 5% (v/v) CO2. Subsequently, cells in T0 plate were subjected to cell proliferation assay as described previously. Meanwhile, cells in T1 plate were cultured in reduced serum medium (0.5% v/v FBS) for 4 h and treated with various concentrations of mitragynine. After 72 h, cell proliferation was determined using CellTiter 96® AQueous One Solution Cell Proliferation Assay (Promega, USA) following manufacturer’s protocol. Cell proliferation results were expressed as percentage growth (PG)[65]. The response parameters GI50 (half maximal growth inhibitory concentration), TGI (total growth inhibition) and LC50 (half maximal lethal concentration) values were derived from a non-linear regression model (curvefit) based on dose response-inhibition curve and computed using GraphPad Prism® 5.01 (GraphPad Software, USA). The GI50, TGI and LC50 are interpolated values representing the concentrations at which the PG is +50, 0 and −50 respectively. Data are presented as mean PG for three independent experiments.

mitragynine
IC50 (hERG1a): 1.03 µM
effect on CYP2D6 (CYP2D6): potent inhibitory activity
association of hERG1a/Hsp70 (hERG1a/Hsp70 complexes; 1 µM): not significantly affected
association of hERG1a/Hsp70 (hERG1a/Hsp70 complexes; 10 μM): not significantly affected
relative expression of hERG1a/Hsp90 complexes (hERG1a/Hsp90 complexes): significantly increased
up-regulation of hERG1a interacting with Hsp90 (hERG1a/Hsp90 complexes): approximately 2.5 fold
effect on GIRK channels [1]: inhibit
GI50 (HEK293-hERG1a/1b cells): 30.2 µM
LC50 (HEK293-hERG1a/1b cells): 85.1 µM
TGI (HEK293-hERG1a/1b cells): 57.68 µM
